Usually MIC stands for the smallest concentration in the dilution series that meets the test's criterion for growth inhibition.

A value given as a limit tells only on which side of the number the result lay.

Our source for the MIC values is ChEMBL document CHEMBL1144381, “Synthesis and antimycobacterial activity of ferrocenyl ethambutol analogues and ferrocenyl diamines” (2005).

This assay has as its system Mycobacterium tuberculosis. In words: In vitro minimum inhibitory concentration measured against Mycobacterium tuberculosis H37Rv strain. Type of assay: functional.

For “(cyclopenta-1,3-dien-1-ylmethyl)({2-[(cyclopenta-1,3-dien-1-ylmethyl)amino]ethyl})amine bis(cyclopenta-1,3-diene) diiron”, it took 8 µg/mL to inhibit growth (MIC).
For `c1ccc(CNCCNCc2ccccc2)cc1` the value was more than 64 µg/mL; for “(cyclopenta-1,3-dien-1-ylmethyl)(hexyl)amine (cyclopenta-1,3-dien-1-ylmethyl)(methyl)amine bis(cyclopenta-1,3-diene) diiron”, 32 µg/mL; for “(1S)-2-({[4-({[(5R)-5-hydroxycyclopenta-1,3-dien-1-yl]methyl}amino)butyl]amino}methyl)cyclopenta-2,4-dien-1-ol bis(cyclopenta-1,3-diene) diiron”, more than 64 µg/mL.
Compound “(1S)-2-({[6-({[(5R)-5-hydroxycyclopenta-1,3-dien-1-yl]methyl}amino)hexyl]amino}methyl)cyclopenta-2,4-dien-1-ol bis(cyclopenta-1,3-diene) diiron” displayed an MIC of more than 64 µg/mL.
“(cyclopenta-1,3-dien-1-ylmethyl)({3-[(cyclopenta-1,3-dien-1-ylmethyl)amino]propyl})amine bis(cyclopenta-1,3-diene) diiron” registered an MIC of 8 µg/mL.
As for “(cyclopenta-1,3-dien-1-ylmethyl)({4-[(cyclopenta-1,3-dien-1-ylmethyl)amino]butyl})amine bis(cyclopenta-1,3-diene) diiron”, the MIC came to 32 µg/mL.
